In patent US7795437B2, “Ether derivatives” (Hoffmann-La Roche Inc., priority 2006, dated 2010):

Key:
[1] = target: T1, human D3 dopamine receptor (Homo sapiens, UniProt P35462); assay: Radioligand binding to cloned human D3 receptor ([3H]-spiperone); conditions: first value of D3/5HT2A/D2; membranes of transfected HEK-293 EBNA cells, 0.5 nM [3H]-spiperone, 1 h at RT
T1 construct: expressed in transfected cells; host or cells: HEK-293 EBNA cells (transient transfection; membrane preparation)
Experimental: (§1) The ability of compounds of the present invention to bind to the 5-HT2A, D3 and D2 receptors was determined using radioligand binding to cloned receptors selectively expressed in HEK-293 EBNA cells.
(§2) Membrane Preparation for Human D2, Human D3 and Human 5-HT2A Receptors
(§3) HEK-293 EBNA cells were transiently transfected with expression plasmids encoding for the human D2 or D3 dopamine- or for the human 5-HT2A serotonin receptor, respectively. The cells were harvested 48 hours post-transfection, washed three times with cold phosphate buffered saline (PBS) and stored at −80° C. prior to use. The pellet was suspended in cold 50 mM Tris-HCl buffer containing 10 mM EDTA (pH 7.4) and homogenized with a Polytron (Kinematica AG, Basel, Switzerland) for 20-30 seconds at 12.000 rpm. After centrifugation at 48.000×g for 30 minutes at 4° C., the pellet was resuspended in cold 10 mM Tris-HCl buffer containing 0.1 mM EDTA (pH 7.4), homogenized, and centrifuged as above. This pellet was further resuspended in a smaller volume of ice cold 10 mM Tris-HCl buffer containing 0.1 mM EDTA (pH 7.4) and homogenized with a Polytron for 20-30 sec at 12.000 rpm. The protein content of this homogenate was determined with the Bio-Rad (Bradford) Protein Assay (Biorad Laboratories GmbH, München, Germany) according to the instructions of the manufacturer using gamma globulin as the standard. This homogenate was stored at −80° C. in aliquots and thawed immediately prior to use.
(§4) Radioligand Binding Assay Conditions
(§5) Aliquots of membrane preparations were thawed at room temperature, resuspended in assay buffer (D2, D3: 50 mM Tris-HCl, 120 mM NaCl, 5 mM MgCl2, 1 mM EDTA, 5 mM KCl, 1.5 mM CaCl2, pH=7.4; 5-HT2A: 50 mM Tris-HCl, 10 mM MgCl2, 1 mM EGTA, pH=7.4), homogenized with a Polytron for 20-30 seconds at 12.000 rpm and adjusted to a final concentration of approximately 7.5 μg protein/well (D2, D3) and 15 μg protein/well (5-HT2A), respectively.
(§6) The binding affinity (Ki) of the compounds was determined using radioligand binding. Membranes were incubated in a total volume of 200 μl with a fixed concentration of radioligand (final concentration approximately 0.7 nM [^3H]-spiperone for D2, 0.5 nM [^3H]-spiperone for D3, and 1.1 nM [^3H]-ketanserin for 5-HT2A) and ten concentrations of test compound ranging between 10 μM-0.1 nM for 1 h at RT. At the end of the incubation, the reaction mixtures were filtered on to unifilter 96-well white microplates with bonded GF/C filters (Packard BioScience, Zudrich, Switzerland; preincubated for 1 h in 0.1% polyethylenimine (PEI) in assay buffer) with a Filtermate 196 harvester (Packard BioScience) and washed 3 times with cold assay buffer. The nonspecific binding was determined with equally composed reaction mixtures in the presence of 10 μM unlabelled spiperone. Per well 45 μl of Microscint 40 (Perkin Elmer, Schwerzenbach, Switzerland) was added, plates for sealed, shaken for 20 min and counted for 3 minutes on a Topcount Microplate Scintillation Counter (Can berra Packard SA, Zu-rich, Switzerland) with quenching correction.
(§7) The CPM value for each duplicate of a concentration of competing compound was averaged (y1), then the % specific binding was calculated according to the equation (((y1−non-specific)/(total binding-non-specific))×100). Graphs were plotted with the % specific binding using XLfit, a curve fitting program that iteratively plots the data using Levenburg Marquardt algorithm. The single site competition analysis equation used was y=A+((B−A)/(1+((x/C)^D))), where y is the % specific binding, A is the minimum y, B is the maximum y, C is the IC50, x is the log10 of the concentration of the competing compound and D is the slope of the curve (the Hill Coefficient). From these curves the IC50 (inhibition concentration at which 50% specific binding of the radioligand was displaced) and Hill coefficient were determined. […]

[2] = target: T2, human 5-HT2A serotonin receptor (Homo sapiens, UniProt P28223); assay: Radioligand binding to cloned human 5-HT2A receptor ([3H]-ketanserin); conditions: second value of D3/5HT2A/D2; membranes of transfected HEK-293 EBNA cells, 1.1 nM [3H]-ketanserin, 1 h at RT
T2 construct: expressed in transfected cells; host or cells: HEK-293 EBNA cells (transient transfection; membrane preparation)
T2 sequence (P28223 whole entry): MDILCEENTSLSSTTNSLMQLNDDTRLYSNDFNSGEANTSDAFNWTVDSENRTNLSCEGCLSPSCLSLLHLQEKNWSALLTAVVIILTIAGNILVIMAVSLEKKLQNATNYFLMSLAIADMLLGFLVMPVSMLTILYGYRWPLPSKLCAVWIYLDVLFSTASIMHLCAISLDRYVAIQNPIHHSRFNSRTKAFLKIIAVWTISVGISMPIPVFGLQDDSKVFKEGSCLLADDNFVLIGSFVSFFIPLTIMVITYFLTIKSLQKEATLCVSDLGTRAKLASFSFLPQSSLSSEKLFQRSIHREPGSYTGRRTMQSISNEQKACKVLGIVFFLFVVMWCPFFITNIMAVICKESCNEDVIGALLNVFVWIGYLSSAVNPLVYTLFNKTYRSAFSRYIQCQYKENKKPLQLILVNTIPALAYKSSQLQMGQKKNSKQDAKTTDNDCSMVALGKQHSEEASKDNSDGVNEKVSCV
Experimental: as §1, §2, §3, §4, §5, §6, §7

[3] = target: T3, human D2 dopamine receptor (Homo sapiens, UniProt P14416); assay: Radioligand binding to cloned human D2 receptor ([3H]-spiperone); conditions: third value of D3/5HT2A/D2; membranes of transfected HEK-293 EBNA cells, 0.7 nM [3H]-spiperone, 1 h at RT
T3 construct: expressed in transfected cells; host or cells: HEK-293 EBNA cells (transient transfection; membrane preparation)
T3 sequence (P14416 whole entry): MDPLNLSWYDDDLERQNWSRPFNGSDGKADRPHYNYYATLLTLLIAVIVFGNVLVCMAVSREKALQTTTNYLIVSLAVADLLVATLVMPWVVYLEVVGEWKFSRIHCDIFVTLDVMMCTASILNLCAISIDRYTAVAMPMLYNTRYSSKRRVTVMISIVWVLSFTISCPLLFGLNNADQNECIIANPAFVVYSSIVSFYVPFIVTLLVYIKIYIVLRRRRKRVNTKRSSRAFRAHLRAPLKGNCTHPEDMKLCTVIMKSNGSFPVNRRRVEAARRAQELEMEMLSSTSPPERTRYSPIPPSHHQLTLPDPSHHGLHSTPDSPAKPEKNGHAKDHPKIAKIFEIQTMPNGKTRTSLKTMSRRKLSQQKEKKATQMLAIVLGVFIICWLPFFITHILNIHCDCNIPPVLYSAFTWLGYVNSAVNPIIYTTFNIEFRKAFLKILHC
Experimental: as §1, §2, §3, §4, §5, §6, §7

T1 sequence (P35462 whole entry): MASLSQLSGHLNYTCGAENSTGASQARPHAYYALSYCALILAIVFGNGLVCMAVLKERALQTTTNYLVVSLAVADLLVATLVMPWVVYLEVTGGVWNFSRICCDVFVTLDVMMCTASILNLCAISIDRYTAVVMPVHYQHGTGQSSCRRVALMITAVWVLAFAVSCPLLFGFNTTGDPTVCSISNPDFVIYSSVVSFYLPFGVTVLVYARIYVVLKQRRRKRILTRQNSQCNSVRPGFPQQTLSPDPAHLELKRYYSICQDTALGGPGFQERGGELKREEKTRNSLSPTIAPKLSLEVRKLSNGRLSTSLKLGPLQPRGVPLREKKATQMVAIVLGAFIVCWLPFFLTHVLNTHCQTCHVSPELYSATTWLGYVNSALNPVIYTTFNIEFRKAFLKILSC

Row | SMILES | Ki [1] [nM] | Ki [2] [nM] | Ki [3] [nM]
1 | COCCC(=O)N[C@H]1CC[C@H](CCN2CCC(Oc3ccc(F)cc3)CC2)CC1 [Example 3, N-(trans-4-{2-[4-(4-Fluoro-phenoxy)-piperidin-1-yl]-ethyl}-cyclohexyl)-3-methoxy-propionamide] | 48 | 22 | 1470
2 | CC(=O)N[C@H]1CC[C@H](CCN2CCC(Oc3ccc(F)cc3)CC2)CC1 [Example 8, Trans N-(4-{2-[4-(4-Fluoro-phenoxy)-piperidin-1-yl]-ethyl}-cyclohexyl)-acetamide] | 50 | 31 | 843
3 | O=C(Nc1ccc(Cl)cc1)N[C@H]1CC[C@H](CCN2CCC(Oc3ccc(F)cc3)CC2)CC1 [Example 9, Trans-1-(4-Chloro-phenyl)-3-(4-{2-[4-(4-fluoro-phenoxy)-piperidin-1-yl]-ethyl}-cyclohexyl)-urea] | 14 | 13 | 574
4 | Cc1ccc(NC(=O)N[C@H]2CC[C@H](CCN3CCC(Oc4ccc(F)cc4)CC3)CC2)cc1 [Example 10, Trans-1-(4-{2-[4-(4-Fluoro-phenoxy)-piperidin-1-yl]-ethyl}-cyclohexyl)-3-p-tolyl-urea] | 16 | 22 | 592
5 | O=C(N[C@H]1CC[C@H](CCN2CCC(Oc3ccc(F)cc3Cl)CC2)CC1)c1ccnc2ccccc12 [Example 11, Quinoline-4-carboxylic acid trans(4-{2[4-(2-chloro-4-fluoro-phenoxy)-piperidin-1-yl]-ethyl}-cyclohexyl)-amide] | 17 | 2 | 321
6 | COCCC(=O)N[C@H]1CC[C@H](CCN2CCC(Oc3ccc(F)cc3Cl)CC2)CC1 [Example 13, N-trans (4-{2-[4-(2-Chloro-4-fluoro-phenoxy)-piperidin-1-yl]-ethyl}-cyclohexyl)-3-methoxy-propionamide] | 14 | 3 | 790
7 | O=C(N[C@H]1CC[C@H](CCN2CCC(Oc3ccc(F)cc3Cl)CC2)CC1)C1CCOCC1 [Example 15, Tetrahydro-pyran-4-carboxylic acid trans (4-{2-[4-(2-chloro-4-fluoro-phenoxy)-piperidin-1-yl]-ethyl}-cyclohexyl)-amide] | 17 | 2 | 556
8 | Cc1nc(-c2cccc(C(=O)N[C@H]3CC[C@H](CCN4CCC(Oc5ccc(F)cc5Cl)CC4)CC3)c2)no1 [Example 16, N-trans (4-{2-[4-(2-Chloro-4-fluoro-phenoxy)-piperidin-1-yl]-ethyl}-cyclohexyl)-3-(5-methyl-[1,2,4]oxadiazol-3-yl)-benzamide] | 11 | 5 | 553
9 | CCC(=O)N[C@H]1CC[C@H](CCN2CCC(Oc3ccc(F)cc3Cl)CC2)CC1 [Example 18, N-trans (4-{2-[4-(2-Chloro-4-fluoro-phenoxy)-piperidin-1-yl]-ethyl}-cyclohexyl)-propionamide] | 5 | 2 | 604
10 | CC(=O)N[C@H]1CC[C@H](CCN2CCC(Oc3ccc(F)cc3Cl)CC2)CC1 [Example 19, N-trans(4-{2-[4-(2-Chloro-4-fluoro-phenoxy)-piperidin-1-yl]-ethyl}-cyclohexyl)-acetamide] | 12 | 3 | 683
11 | Cc1ccc(NC(=O)N[C@H]2CC[C@H](CCN3CCC(Oc4ccc(F)cc4Cl)CC3)CC2)cc1 [Example 21, 1-trans(4-{2-[4-(2-Chloro-4-fluoro-phenoxy)-piperidin-1-yl]-ethyl}-cyclohexyl)-3-p-tolyl-urea] | 3 | 2 | 697
12 | O=C(N[C@H]1CC[C@H](CCN2CCC(Oc3ccc(F)cc3F)CC2)CC1)c1ccnc2ccccc12 [Example 24, Quinoline-4-carboxylic acid trans(4-{2-[4-(2,4-difluoro-phenoxy)-piperidin-1-yl]-ethyl}-cyclohexyl)-amide] | 8 | 3 | 453
13 | O=C(N[C@H]1CC[C@H](CCN2CCC(Oc3cc(F)c(F)cc3F)CC2)CC1)C1CCOCC1 [Example 51, Tetrahydro-pyran-4-carboxylic acid trans(4-{2-[4-(2,4,5-trifluoro-phenoxy)-piperidin-1-yl]-ethyl}-cyclohexyl)-amide] | 29 | 36 | 638
14 | CC(=O)N[C@H]1CC[C@H](CCN2CCC(Oc3ccc(Cl)cc3C#N)CC2)CC1 [Example 62, N-trans-(4-{2-[4-(4-Chloro-2-cyano-Phenoxy)-piperidin-1-yl]-ethyl}-cyclohexyl)-acetamide] | 100 | 43 | 3320
15 | O=C(N[C@H]1CC[C@H](CCN2CCC(Oc3cccc(Cl)c3Cl)CC2)CC1)c1ccnc2ccccc12 [Example 72, Quinoline-4-carboxylic acid trans(4-{2-[4-(2,3-dichloro-phenoxy)-piperidin-1-yl]-ethyl}-cyclohexyl)-amide] | 5 | 9 | 319
16 | O=C(N[C@H]1CC[C@H](CCN2CCC(Oc3ccncc3)CC2)CC1)c1ccnc2ccccc12 [Example 74, Quinoline-4-carboxylic acid (trans-4-{2-[4-(Pyridin-4-yloxy)-piperidin-1-yl]-ethyl}-cyclohexyl)-amide] | 208 | 60 | 3000
